# Measured values: patent US9546401B2, “Assays and methods for selecting a treatment regimen for a subject with depression” (The General Hospital Corporation, priority 2011, dated 2017)
# Like-named read-outs stand apart in the source and are kept apart here. Marks after values point to notes of the source that are not given here.
# Tested on: MDD patients carrying the indicated biomarkers
# Conditions: for Effect on change in HAMD-28 score / Effect on change in HAMD-17 score: Pooled phases
# Experimental: Folate levels are classified as either low (<=2.5 ng/ml) or normal; and homocysteine levels as either normal or elevated (>=[…]). The presence or absence of at least one […] allele for the MTHFR gene are entered as a dichotomous variable (present or absent). […] Using folate as an example predicator, the presence or absence of a low serum-folate level along with treatment assignment can be entered in a 2×2, factorial ANOVA, using depression improvement scores (baseline minus endpoint HAM-D-17 scores) as the dependant variable. […] Similar analyses (i.e. separate 2×2 ANOVA's) can be performed substituting the presence of low folate levels for the presence of other predictors as described herein. Similarly, the effect of other predictors can be indicated by the interaction term representing the potential modulating influence of those variables.
# The efficacy effect is determined by measuring the mean change in the HAMD-17 score and HAMD-28 score by the end of Phase I and Phase II, as compared to the baseline.
# [1] = BMI < 30 kg/m^2 and HNE-His < median
# [2] = BMI < 30 kg/m^2 and SAM/SAH >= median
# [3] = BMI >= 30 kg/m^2 and HNE-His >= median
# [4] = BMI*treat (interaction of BMI with the treatment)
# [5] = MTHFR 677 CC and BMI < 30 kg/m^2
# [6] = MTHFR 677 CT or TT and BMI >= 30 kg/m^2
# [7] = MTHFR 677 CT or TT and HNE-His >= median
# [8] = MTR 2756 AA and BMI < 30 kg/m^2
# [9] = MTR 2756 AA and HNE-His < median
# [10] = MTR 2756 AA and MTRR 66 AA and SAM/SAH >= median
# [11] = MTR 2756 AA and SAM/SAH >= median
# [12] = MTR 2756 AG or GG and BMI >= 30 kg/m^2
# [13] = MTR 2756 AG or GG and MTRR 66 AG or GG
# [14] = MTR 2756 AG or GG and MTRR 66 AG or GG and HNE-His >= median
# [15] = MTRR 66 AA and SAM/SAH >= median
# [16] = MTRR 66 AG or GG and HNE-His >= median
# [17] = SAM/SAH < median and HNE-His >= median
# [18] = SAM/SAH >= median and HNE-His < median
structure (smiles),measurement,setting,value
"CN1c2c(nc(N)[nH]c2=O)NC[C@@H]1CNc1ccc(C(=O)N[C@@H](CCC(=O)O)C(=O)O)cc1 [6(S)-5-MTHF, 6(S)-5-methyltetrahydrofolate]",Effect on change in HAMD-28 score,BMI < 25,−1.018
same,Effect on change in HAMD-17 score,[1],4.738
same,Effect on change in HAMD-28 score,[1],4.253
same,Effect on change in HAMD-17 score,[2],2.583
same,Effect on change in HAMD-28 score,[2],2.906
same,Effect on change in HAMD-17 score,BMI >= 30 kg/m^2,−4.600
same,Effect on change in HAMD-28 score,BMI >= 30 kg/m^2,−4.660
same,Effect on change in HAMD-17 score,[3],−5.420
same,Effect on change in HAMD-28 score,[3],−5.996
same,Effect on change in HAMD-17 score,BMI >= 30 kg/m^2 and SAM/SAH < median,−7.302
same,Effect on change in HAMD-28 score,BMI >= 30 kg/m^2 and SAM/SAH < median = 2.71 (plasma),−7.572
same,Effect on change in HAMD-17 score,[4],−0.233
same,Effect on change in HAMD-28 score,[4],−0.270
same,Effect on change in HAMD-17 score,[5],1.356
same,Effect on change in HAMD-28 score,[5],−0.234
same,Effect on change in HAMD-17 score,MTHFR 677 CC and HNE-His < median,−1.050
same,Effect on change in HAMD-28 score,MTHFR 677 CC and HNE-His < median = 3.28 (plasma),−1.340
same,Effect on change in HAMD-17 score,[6],−8.090
same,Effect on change in HAMD-28 score,[6],−9.884
same,Effect on change in HAMD-17 score,[7],−9.446
same,Effect on change in HAMD-28 score,[7],−9.865
same,Effect on change in HAMD-17 score,MTR 2756 AA,−0.590
same,Effect on change in HAMD-28 score,MTR 2756 AA,−0.047
same,Effect on change in HAMD-17 score,[8],3.196
same,Effect on change in HAMD-28 score,[8],3.352
same,Effect on change in HAMD-17 score,[9],1.319
same,Effect on change in HAMD-28 score,[9],2.085
same,Effect on change in HAMD-17 score,MTR 2756 AA and MTRR 66 AA,−1.373
same,Effect on change in HAMD-28 score,MTR 2756 AA and MTRR 66 AA,−3.032
same,Effect on change in HAMD-17 score,MTR 2756 AA and MTRR 66 AA and HNE-His < median,0.466
same,Effect on change in HAMD-28 score,MTR 2756 AA and MTRR 66 AA and HNE-His < median = 3.28 (plasma),−2.221
same,Effect on change in HAMD-17 score,[10],−3.98*
same,Effect on change in HAMD-28 score,[10],−3.74*
same,Effect on change in HAMD-17 score,[11],0.054
same,Effect on change in HAMD-28 score,[11],−0.071
same,Effect on change in HAMD-17 score,[12],−11.714
same,Effect on change in HAMD-28 score,[12],−14.433
same,Effect on change in HAMD-17 score,MTR 2756 AG or GG and HNE-His >= median,−8.072
same,Effect on change in HAMD-28 score,MTR 2756 AG or GG and HNE-His >= median = 3.28 (plasma),−9.508
same,Effect on change in HAMD-17 score,[13],−6.976
same,Effect on change in HAMD-28 score,[13],−9.348
same,Effect on change in HAMD-17 score,[14],−7.942
same,Effect on change in HAMD-28 score,[14],−10.241
same,Effect on change in HAMD-17 score,MTR 2756 AG or GG and MTRR 66 AG or GG and SAM/SAH < median,−7.64*
same,Effect on change in HAMD-28 score,MTR 2756 AG or GG and MTRR 66 AG or GG and SAM/SAH < median = 2.71 (plasma),−11.62*
same,Effect on change in HAMD-17 score,MTR 2756 AG or GG and SAM/SAH < median,−5.583
same,Effect on change in HAMD-28 score,MTR 2756 AG or GG and SAM/SAH < median = 2.71 (plasma),−11.683
same,Effect on change in HAMD-17 score,MTR 2756 AG/GG,−5.677
same,Effect on change in HAMD-28 score,MTR 2756 AG/GG,−8.243
same,Effect on change in HAMD-17 score,MTRR 66 AA and HNE-His < median,2.575
same,Effect on change in HAMD-28 score,MTRR 66 AA and HNE-His < median = 3.28 (plasma),−2.626
same,Effect on change in HAMD-17 score,[15],−2.978
same,Effect on change in HAMD-28 score,[15],−1.221
same,Effect on change in HAMD-17 score,[16],−4.850
same,Effect on change in HAMD-28 score,[16],−6.582
same,Effect on change in HAMD-17 score,MTRR 66 AG or GG and SAM/SAH < median,−5.879
same,Effect on change in HAMD-28 score,MTRR 66 AG or GG and SAM/SAH < median = 2.71 (plasma),−6.579
same,Effect on change in HAMD-17 score,[17],−9.898
same,Effect on change in HAMD-28 score,[17],−9.500
same,Effect on change in HAMD-17 score,[18],2.107
same,Effect on change in HAMD-28 score,[18],2.413
same,Effect on change in HAMD-28 score,"SAM/SAH*treat, first line under HAMD28",0.882
same,Effect on change in HAMD-17 score,baseHAMD-17*treat (interaction of base HAMD-17 with the treatment),−0.025
same,improvement in HDRS-28 or CGI-S,"at least one T allele (CT or TT) at MTHFR 677 versus no T allele, + SSRI",greater degree of improvement
same,improvement in HAMD-28 or CGI-S,"obese (BMI at least 30 kg/m^2) versus non-obese patients, + SSRI",greater degree of improvement
same,mean change in HAMD-28,patients carrying at least one G variant in the MTR gene only,about −8.2
same,mean change in HAMD-28,patients carrying both MTHFR T and MTR G variants,about −23.3
